Measured values from patent publication US20090018194A1, “Use of antimicrobial agents derived from alliaceous plants for the prevention and control of crop diseases, post-harvest rot and as environmental disinifectant products” (DMC Research Center, S.L., priority 2007, published 2009).

Key:
[1] = test system: Penicillium italicum CECT 2294; experiment: agar diffusion test with impregnated cellulose discs; assay type: cell-based; conditions: incl. 6 mm disc
[2] = test system: Listeria monocytogenes CECT 4032; experiment: as above; assay type: cell-based; conditions: incl. 6 mm disc
[3] = test system: Escherichia coli CECT 515; experiment: as above; assay type: cell-based; conditions: incl. 6 mm disc
[4] = test system: Penicillium sp. (CPC-PT-2); experiment: agar diffusion test, wild fungi isolated from crown rot in bananas; assay type: cell-based; conditions: incl. 6 mm disc
[5] = test system: Phytophthora citrophthora; experiment: post-harvest rotting of inoculated oranges (Navelina), immersion treatment; assay type: in vivo
Method: (§1) This example considers the effectiveness of the active natural principles PTS and PTSO in two different doses for the control of post-harvest rotting of oranges ([…] variety), caused by controlled artificial inoculation with the fungi Penicillium digitatum, Penicillium expansum, Phytophthora citrophthora and Geotrichum candidum, the principal pathogens of this fruit. The inoculation of the oranges was carried out with suspensions of spores of the different wild fungal strains selected, according to the methodology described below. The first step was the isolation and identification of the fungal strains used in the study. The strains of filamentous fungi used in these tests (Penicillium digitatum, Penicillium italicum and Phytophthora citrophthora) were isolated from oranges affected by rot. In these isolation processes, it was not possible to detect any strain belonging to Geotrichum candidum, as a result of which it was necessary to obtain the latter substance from the Spanish Collection of Standard Cultures, where it is identified by reference CECT 1102. […] To promote the implantation of the inoculum of Geotrichum candidum, 200 ppm of cyclohexamide was added to the inoculum prior to its inoculation. […] The assessment of the effectiveness of PTS and PTSO comprised counting of the number of fruits affected by rot in the inoculated zone, to determine the percentage of fruit affected for each treatment and fungus inoculated, and expressing this effectiveness as a percentage of reduction of the affected fruit.

Geotrichum candidum = experiment: as above; assay type: in vivo
Method: as §1

[6] = test system: Penicillium sp. (CPC-PT-3); experiment: agar diffusion test, wild fungi isolated from crown rot in bananas; assay type: cell-based; conditions: incl. 6 mm disc
[7] = test system: Aspergillus niger CECT 2700; experiment: agar diffusion test with impregnated cellulose discs; assay type: cell-based; conditions: incl. 6 mm disc
Penicillium expansum = experiment: post-harvest rotting of inoculated pears, drencher treatment; assay type: in vivo; conditions: 15 days of refrigeration at 5-6° C.
Method: (§2) The effectiveness of the active principle PTS (in various individual doses) was studied in the control of post-harvest rotting of pears and apples caused by the fungi Botrytis cinerea and Penicillium expansum, the principal agents of diseases in these fruits. These phytopathogens can appear in fruit being stored in a cold room and, once in the processing plant and in a later phase, form colonies and are transferred from one fruit to another by contact. The study was performed by means of a controlled inoculation test to ensure a high percentage of affected fruits, and to guarantee that this level of infection is with certainty caused by these pathogens, thereby making it possible to detect and evaluate significant differences between the different treatments. […] To perform the controlled inoculation, wild strains of Botrytris cinerea and Penicillium expansum were used which were isolated in fruit and vegetable processing plants. […] After the time indicated above had passed, the various post-harvest treatments were carried out by means of […] 25° C. for 60 seconds.

Botrytis cinerea = experiment: as above; assay type: in vivo; conditions: 15 days of refrigeration at 5-6° C.
Method: as §2

[8] = test system: Micrococcus luteus ATCC 15307; experiment: agar diffusion test with impregnated cellulose discs; assay type: cell-based; conditions: incl. 6 mm disc
[9] = test system: Candida parapsilosis CCTM 1038; experiment: as above; assay type: cell-based; conditions: incl. 6 mm disc
[10] = test system: Candida magnoliae DSMZ 70638; experiment: as above; assay type: cell-based; conditions: incl. 6 mm disc
[11] = test system: Saccharomyces cerevisiae CECT 1324; experiment: as above; assay type: cell-based; conditions: incl. 6 mm disc
[12] = test system: Candida krusei ATCC 34135; experiment: as above; assay type: cell-based; conditions: incl. 6 mm disc
[13] = test system: Bacillus megaterium ATCC 33085; experiment: as above; assay type: cell-based; conditions: incl. 6 mm disc
[14] = test system: Penicillium sp. (CPC-PT-1); experiment: agar diffusion test, wild fungi isolated from crown rot in bananas; assay type: cell-based; conditions: incl. 6 mm disc
[15] = 1600 ppm, 4 days of treatment at 20° C.
[16] = 1600 ppm, 7 days of treatment at 20° C.
[17] = 2500 ppm, 4 days of treatment at 20° C.
[18] = 2500 ppm, 7 days of treatment at 20° C.

CCCS[S+]([O-])CCC (centres unmarked) [PTS, Propyl Propyl Thiosulfinate]
diameter of the microbial inhibition halo ([1]; 25 ppm): 22 mm
diameter of the microbial inhibition halo ([1]; 50 ppm): 26 mm
diameter of the microbial inhibition halo ([1]; 100 ppm): 34 mm
diameter of the microbial inhibition halo ([2]; 25 ppm): 18 mm
diameter of the microbial inhibition halo ([2]; 50 ppm): 24 mm
diameter of the microbial inhibition halo ([2]; 100 ppm): 30 mm
diameter of the microbial inhibition halo ([3]; 25 ppm): 14 mm
diameter of the microbial inhibition halo ([3]; 50 ppm): 17 mm
diameter of the microbial inhibition halo ([3]; 100 ppm): 21 mm
diameter of the microbial inhibition halo ([4]; 30 ppm): 0 mm
diameter of the microbial inhibition halo ([4]; 60 ppm): 0 mm
diameter of the microbial inhibition halo ([4]; 125 ppm): 0 mm
diameter of the microbial inhibition halo ([4]; 250 ppm): 15 mm
diameter of the microbial inhibition halo ([4]; 500 ppm): 25 mm
diameter of the microbial inhibition halo ([4]; 1000 ppm): 25 mm
% Reduction [5, 15]: 60%
% of fruit affected [5, 15]: 18%
% Reduction [5, 16]: 7%
% of fruit affected [5, 16]: 93%
% Reduction [5, 17]: 70%
% of fruit affected [5, 17]: 8%
% Reduction [5, 18]: 20%
% of fruit affected [5, 18]: 80%
% Reduction (Geotrichum candidum; 1600 ppm, 7 days at 20° C.): 95%
% of fruit affected (Geotrichum candidum; 1600 ppm, 7 days at 20° C.): 5%
% Reduction (Geotrichum candidum; 1600 ppm, 14 days at 20° C.): 37%
% of fruit affected (Geotrichum candidum; 1600 ppm, 14 days at 20° C.): 63%
% Reduction (Geotrichum candidum; 2500 ppm, 7 days at 20° C.): 100%
% of fruit affected (Geotrichum candidum; 2500 ppm, 7 days at 20° C.): 0%
% Reduction (Geotrichum candidum; 2500 ppm, 14 days at 20° C.): 37%
% of fruit affected (Geotrichum candidum; 2500 ppm, 14 days at 20° C.): 63%
diameter of the microbial inhibition halo ([6]; 30 ppm): 0 mm
diameter of the microbial inhibition halo ([6]; 60 ppm): 0 mm
diameter of the microbial inhibition halo ([6]; 125 ppm): 10 mm
diameter of the microbial inhibition halo ([6]; 250 ppm): 13 mm
diameter of the microbial inhibition halo ([6]; 500 ppm): 15 mm
diameter of the microbial inhibition halo ([6]; 1000 ppm): 17 mm
diameter of the microbial inhibition halo ([7]; 25 ppm): 10 mm
diameter of the microbial inhibition halo ([7]; 50 ppm): 13 mm
diameter of the microbial inhibition halo ([7]; 100 ppm): 19 mm
% of fruit affected (Penicillium expansum; Decana, 500 ppm): 0%
% of fruit affected (Penicillium expansum; Decana, 666 ppm): 2%
% of fruit affected (Penicillium expansum; Decana, 833 ppm): 0%
% of fruit affected (Penicillium expansum; Decana, 1666 ppm): 3%
% of fruit affected (Penicillium expansum; Flor de invierno, 500 ppm): 3.6%
% of fruit affected (Penicillium expansum; Flor de invierno, 666 ppm): 2.2%
% of fruit affected (Penicillium expansum; Flor de invierno, 833 ppm): 2.4%
% of fruit affected (Penicillium expansum; Flor de invierno, 1666 ppm): 5.3%
% of fruit affected (Botrytis cinerea; Decana, 500 ppm): 0%
% of fruit affected (Botrytis cinerea; Decana, 666 ppm): 0%
% of fruit affected (Botrytis cinerea; Decana, 833 ppm): 1%
% of fruit affected (Botrytis cinerea; Decana, 1666 ppm): 0.5%
% of fruit affected (Botrytis cinerea; Flor de invierno, 500 ppm): 3.5%
% of fruit affected (Botrytis cinerea; Flor de invierno, 666 ppm): 0.4%
% of fruit affected (Botrytis cinerea; Flor de invierno, 833 ppm): 3.7%
% of fruit affected (Botrytis cinerea; Flor de invierno, 1666 ppm): 3%
diameter of the microbial inhibition halo ([8]; 25 ppm): 19 mm
diameter of the microbial inhibition halo ([8]; 50 ppm): 25 mm
diameter of the microbial inhibition halo ([8]; 100 ppm): 32 mm
diameter of the microbial inhibition halo ([9]; 25 ppm): 0 mm
diameter of the microbial inhibition halo ([9]; 50 ppm): 14 mm
diameter of the microbial inhibition halo ([9]; 100 ppm): 17 mm
diameter of the microbial inhibition halo ([10]; 25 ppm): 22 mm
diameter of the microbial inhibition halo ([10]; 50 ppm): 30 mm
diameter of the microbial inhibition halo ([10]; 100 ppm): 38 mm
diameter of the microbial inhibition halo ([11]; 25 ppm): 28 mm
diameter of the microbial inhibition halo ([11]; 50 ppm): 32 mm
diameter of the microbial inhibition halo ([11]; 100 ppm): 44 mm
diameter of the microbial inhibition halo ([12]; 25 ppm): 14 mm
diameter of the microbial inhibition halo ([12]; 50 ppm): 18 mm
diameter of the microbial inhibition halo ([12]; 100 ppm): 29 mm
diameter of the microbial inhibition halo ([13]; 25 ppm): 23 mm
diameter of the microbial inhibition halo ([13]; 50 ppm): 27 mm
diameter of the microbial inhibition halo ([13]; 100 ppm): 34 mm
diameter of the microbial inhibition halo ([14]; 30 ppm): 0 mm
diameter of the microbial inhibition halo ([14]; 60 ppm): 0 mm
diameter of the microbial inhibition halo ([14]; 125 ppm): 11 mm
diameter of the microbial inhibition halo ([14]; 250 ppm): 15 mm
diameter of the microbial inhibition halo ([14]; 500 ppm): 18 mm
diameter of the microbial inhibition halo ([14]; 1000 ppm): 20 mm
